Experimental data: patent US20120301433A1, “BACTERIOPHAGES EXPRESSING AMYLOID PEPTIDES AND USES THEREOF” (priority 2009, published 2012)

Experiments:
CsgA [1] = molecular target: T1, CsgA (Escherichia coli, UniProt P28307); assay type: biochemical; settings: CsgA:inhibitor ratios, FIG. 9
CsgA [2] = molecular target: T1, CsgA; settings: 20-residue peptides on array
CsgA [3] = molecular target: T1, CsgA; settings: ThT fluorescence, FIG. 7E

T1 sequence (P28307 21-151): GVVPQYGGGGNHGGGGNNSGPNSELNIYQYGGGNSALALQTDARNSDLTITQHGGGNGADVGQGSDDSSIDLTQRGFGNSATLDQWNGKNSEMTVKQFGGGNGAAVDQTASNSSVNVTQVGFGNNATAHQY

Molecule	effect of small molecule inhibitors on curli amyloid fiber formation (in words) (CsgA [1])	fluorescence of labelled CsgA bound to peptide spot (in words) (CsgA [2])	nucleation of CsgA fiber assembly by plate-bound peptide (in words) (CsgA [3])
COc1ccc(Nc2cc3c(cc2Nc2ccc(OC)cc2)C(=O)NC3=O)cc1 [DAPH-12]	secetively inhibits Curli assembly		
C[C@@H]1[C@H](O)[C@@H](C)/C=C/C=C/C=C/C=C/C=C/C=C/C=C/[C@H](O[C@@H]2O[C@H](C)[C@@H](O)[C@H](N)[C@@H]2O)C[C@@H]2O[C@](O)(C[C@@H](O)C[C@@H](O)[C@H](O)CC[C@@H](O)C[C@@H](O)CC(=O)O[C@H]1C)C[C@H](O)[C@H]2C(=O)O [AmphB, Amphotericin B]	does not inhibit Curli assembly		
GTQKTAIVVQRQSQMAIRVT [CsgB130-149]		strongest signal	facilitated CsgA amyloid fiber formation with first-order kinetics
